Measurements reported in patent US8551984B2, “Aminopyrimidines as SYK inhibitors” (Merck Sharp & Dohme Corp., priority 2009, dated 2013).

biological target: recombinant human SYK (GST-hSYK fusion protein) (Homo sapiens, UniProt P43405); test: biochemical; conditions: RHSYK Activity, Table 54A
Source text: Homogeneous Time-Resolved Fluorescence (HTRF) Assay for the Recombinant Human SYK Enzyme:

| IC50 [nM] | Compound |
| --- | --- |
| < 100 | Cc1cc(Nc2nccc(C(F)(F)F)n2)cc(-c2cnc(C3(O)CCN(C(=O)c4c[nH]nn4)CC3)s2)c1 [Example 54A-31] |
| < 100 | Cc1cc(Nc2nccc(C(F)(F)F)n2)cc(-c2cnc(C3(O)CCN(C(=O)C4CCOC4)CC3)s2)c1 (stereo not shown) [Example 54A-32] |
| < 100 | Cc1cc(Nc2nccc(C(F)(F)F)n2)cc(-c2cnc(C3(O)CCN(C(=O)C4CC(O)C4)CC3)s2)c1 (stereo not shown) [Example 54A-33] |
| < 100 | Cc1cc(Nc2nccc(C(F)(F)F)n2)cc(-c2cnc(C3(O)CCN(C(=O)c4ccccc4)CC3)s2)c1 [Example 54A-34] |
| < 100 | Cc1cc(Nc2nccc(C(F)(F)F)n2)cc(-c2cnc(C3(O)CCN(C(=O)Cn4ccnc4)CC3)s2)c1 [Example 54A-35] |
| < 100 | Cc1cc(Nc2nccc(C(F)(F)F)n2)cc(-c2cnc(C3(O)CCN(C(=O)Cc4c[nH]cn4)CC3)s2)c1 [Example 54A-36] |
| < 100 | Cc1cc(Nc2nccc(C(F)(F)F)n2)cc(-c2cnc(C3(O)CCN(C(=O)Cn4cncn4)CC3)s2)c1 [Example 54A-37] |
| < 100 | Cc1cc(Nc2nccc(C(F)(F)F)n2)cc(-c2cnc(C3(O)CCN(C(=O)[C@@H]4CCC(=O)N4)CC3)s2)c1 [Example 54A-38] |
| < 100 | Cc1cc(Nc2nccc(C(F)(F)F)n2)cc(-c2cnc(C3(O)CCN(C(=O)C4CNC(=O)N4)CC3)s2)c1 (stereo not shown) [Example 54A-39] |
| < 100 | Cc1cc(Nc2nccc(C(F)(F)F)n2)cc(-c2cnc(C3(O)CCN(C(=O)CC4CCOC4)CC3)s2)c1 (stereo not shown) [Example 54A-40] |
| < 100 | Cc1cc(Nc2nccc(C(F)(F)F)n2)cc(-c2cnc(C3(O)CCN(C(=O)C4CCCOC4)CC3)s2)c1 (stereo not shown) [Example 54A-41] |
| < 100 | Cc1cc(Nc2nccc(C(F)(F)F)n2)cc(-c2cnc(C3(O)CCN(C(=O)CC4CCCO4)CC3)s2)c1 (stereo not shown) [Example 54A-42] |
| < 100 | CCOC(=O)CC(=O)N1CCC(O)(c2ncc(-c3cc(C)cc(Nc4nccc(C(F)(F)F)n4)c3)s2)CC1 [Example 54A-43] |
| < 100 | Cc1cc(Nc2nccc(C(F)(F)F)n2)cc(-c2cnc(C3(O)CCN(C(=O)C(C)(CO)CO)CC3)s2)c1 [Example 54A-44] |
| < 100 | Cc1cc(Nc2nccc(C(F)(F)F)n2)cc(-c2cnc(C3(O)CCN(C(=O)Cc4cccnc4)CC3)s2)c1 [Example 54A-45] |
| < 100 | Cc1cc(Nc2nccc(C(F)(F)F)n2)cc(-c2cnc(C3(O)CCN(C(=O)Cc4ccccn4)CC3)s2)c1 [Example 54A-46] |
| < 100 | Cc1cc(Nc2nccc(C(F)(F)F)n2)cc(-c2cnc(C3(O)CCN(C(=O)CS(C)(=O)=O)CC3)s2)c1 [Example 54A-47] |
| < 100 | Cc1cc(Nc2nccc(C(F)(F)F)n2)cc(-c2cnc(C3(O)CCN(C(=O)CCc4cn[nH]c4)CC3)s2)c1 [Example 54A-50] |
| < 100 | Cc1cc(Nc2nccc(C(F)(F)F)n2)cc(-c2cnc(C3(O)CCN(C(=O)CCn4cncn4)CC3)s2)c1 [Example 54A-51] |
| < 100 | Cc1cc(Nc2nccc(C(F)(F)F)n2)cc(-c2cnc(C3(O)CCN(C(=O)[C@@H]4CCCC(=O)N4)CC3)s2)c1 [Example 54A-52] |
| < 100 | Cc1cc(Nc2nccc(C(F)(F)F)n2)cc(-c2cnc(C3(O)CCN(C(=O)CC4CCOCC4)CC3)s2)c1 [Example 54A-53] |
| < 100 | COC(=O)C1(C(=O)N2CCC(O)(c3ncc(-c4cc(C)cc(Nc5nccc(C(F)(F)F)n5)c4)s3)CC2)CC1 [Example 54A-54] |
| < 100 | C#Cc1ccc(C(=O)N2CCC(O)(c3ncc(-c4cc(C)cc(Nc5nccc(C(F)(F)F)n5)c4)s3)CC2)cc1 [Example 54A-55] |
| < 100 | Cc1cc(Nc2nccc(C(F)(F)F)n2)cc(-c2cnc(C3(O)CCN(C(=O)c4ccc(C#N)cc4)CC3)s2)c1 [Example 54A-56] |
| < 100 | Cc1cc(Nc2nccc(C(F)(F)F)n2)cc(-c2cnc(C3(O)CCN(C(=O)c4ccc(O)c(F)c4)CC3)s2)c1 [Example 54A-57] |
| < 100 | Cc1cc(Nc2nccc(C(F)(F)F)n2)cc(-c2cnc(C3(O)CCN(C(=O)CC(N)C(F)(F)F)CC3)s2)c1 (stereo not shown) [Example 54A-58] |

| Compound | IC50 [nM] |
| --- | --- |
| COC(=O)CN1CCC(O)(c2ncc(-c3cc(C)cc(Nc4nccc(C(F)(F)F)n4)c3)s2)CC1 [Example 54A-70] | < 100 |
| COC(=O)CCN1CCC(O)(c2ncc(-c3cc(C)cc(Nc4nccc(C(F)(F)F)n4)c3)s2)CC1 [Example 54A-71] | < 100 |
| COC(=O)C(C)N1CCC(O)(c2ncc(-c3cc(C)cc(Nc4nccc(C(F)(F)F)n4)c3)s2)CC1 (stereo not shown) [Example 54A-72] | < 100 |
| COC(=O)CCCN1CCC(O)(c2ncc(-c3cc(C)cc(Nc4nccc(C(F)(F)F)n4)c3)s2)CC1 [Example 54A-73] | < 100 |

same assay, conditions: rhSYK Activity, Table 54D

| Compound | IC50 [nM] |
| --- | --- |
| Cc1cc(Nc2nccc(C(F)(F)F)n2)cc(-c2cnc(C3(O)CCCN(C(=O)C4CCCO4)CC3)s2)c1 (stereo not shown) [Example 54D-40] | < 100 |
| Cc1cc(Nc2nccc(C(F)(F)F)n2)cc(-c2cnc(C3(O)CCCN(C(=O)c4ccccc4)CC3)s2)c1 (stereo not shown) [Example 54D-45] | < 100 |
| Cc1cc(Nc2nccc(C(F)(F)F)n2)cc(-c2cnc(C3(O)CCCN(C(=O)Cn4ccnc4)CC3)s2)c1 (stereo not shown) [Example 54D-46] | < 100 |
| Cc1cc(Nc2nccc(C(F)(F)F)n2)cc(-c2cnc(C3(O)CCCN(C(=O)Cc4c[nH]cn4)CC3)s2)c1 (stereo not shown) [Example 54D-47] | < 100 |
| Cc1cc(Nc2nccc(C(F)(F)F)n2)cc(-c2cnc(C3(O)CCCN(C(=O)c4cc(C)on4)CC3)s2)c1 (stereo not shown) [Example 54D-48] | < 100 |
| Cc1cc(Nc2nccc(C(F)(F)F)n2)cc(-c2cnc(C3(O)CCCN(C(=O)Cn4cncn4)CC3)s2)c1 (stereo not shown) [Example 54D-49] | < 100 |
| Cc1cc(Nc2nccc(C(F)(F)F)n2)cc(-c2cnc(C3(O)CCCN(C(=O)c4nnnn4C)CC3)s2)c1 (stereo not shown) [Example 54D-55] | < 100 |
| Cc1cc(Nc2nccc(C(F)(F)F)n2)cc(-c2cnc(C3(O)CCCN(C(=O)Cn4cnnn4)CC3)s2)c1 (stereo not shown) [Example 54D-56] | < 100 |
| Cc1cc(Nc2nccc(C(F)(F)F)n2)cc(-c2cnc(C3(O)CCCN(C(=O)C4CCC(=O)N4)CC3)s2)c1 (stereo not shown) [Example 54D-61] | < 100 |
| Cc1cc(Nc2nccc(C(F)(F)F)n2)cc(-c2cnc(C3(O)CCCN(C(=O)c4n[nH]c(=O)[nH]4)CC3)s2)c1 (stereo not shown) [Example 54D-62] | < 100 |
| Cc1cc(Nc2nccc(C(F)(F)F)n2)cc(-c2cnc(C3(O)CCCN(C(=O)C4CNC(=O)N4)CC3)s2)c1 (stereo not shown) [Example 54D-64] | < 100 |

More lines, now with the values ahead:

| IC50 [nM] | Compound |
| --- | --- |
| < 100 | Cc1cc(Nc2nccc(C(C)C)n2)cc(-c2cnc(C3(O)CCCNCC3)s2)c1 (stereo not shown) [Example 54D-1] |
| < 100 | CC(=O)N1CCCC(O)(c2ncc(-c3cc(C)cc(Nc4nccc(C(F)(F)F)n4)c3)s2)CC1 (stereo not shown) [Example 54D-2] |
| < 100 | Cc1cc(Nc2nccc(C(C)C)n2)cc(-c2cnc(C3(O)CCCN(C(=O)C(C)O)CC3)s2)c1 (stereo not shown) [Example 54D-4] |
| < 100 | CCC(=O)N1CCCC(O)(c2ncc(-c3cc(C)cc(Nc4nccc(C(F)(F)F)n4)c3)s2)CC1 (stereo not shown) [Example 54D-5] |
| < 100 | Cc1cc(Nc2nccc(C(C)C)n2)cc(-c2cnc(C3(O)CCCN(C(=O)CC(N)=O)CC3)s2)c1 (stereo not shown) [Example 54D-6] |
| < 100 | Cc1cc(Nc2nccc(C(C)C)n2)cc(-c2cnc(C3(O)CCCN(C(=O)CC(=O)O)CC3)s2)c1 (stereo not shown) [Example 54D-7] |
| < 100 | Cc1cc(Nc2nccc(C(C)C)n2)cc(-c2cnc(C3(O)CCCN(C(=O)C(O)CO)CC3)s2)c1 (stereo not shown) [Example 54D-8] |
| < 100 | Cc1cc(Nc2nccc(C(F)(F)F)n2)cc(-c2cnc(C3(O)CCCN(C(=O)CC#N)CC3)s2)c1 (stereo not shown) [Example 54D-9] |
| < 100 | Cc1cc(Nc2nccc(C(F)(F)F)n2)cc(-c2cnc(C3(O)CCCN(C(=O)C4CC4)CC3)s2)c1 (stereo not shown) [Example 54D-10] |
| < 100 | C=CCC(=O)N1CCCC(O)(c2ncc(-c3cc(C)cc(Nc4nccc(C(F)(F)F)n4)c3)s2)CC1 (stereo not shown) [Example 54D-11] |
| < 100 | COCC(=O)N1CCCC(O)(c2ncc(-c3cc(C)cc(Nc4nccc(C(F)(F)F)n4)c3)s2)CC1 (stereo not shown) [Example 54D-12] |
| < 100 | Cc1cc(Nc2nccc(C(F)(F)F)n2)cc(-c2cnc(C3(O)CCCN(C(=O)CCO)CC3)s2)c1 (stereo not shown) [Example 54D-13] |
| < 100 | Cc1cc(Nc2nccc(C(F)(F)F)n2)cc(-c2cnc(C3(O)CCCN(C(=O)C(C)O)CC3)s2)c1 (stereo not shown) [Example 54D-14] |
| < 100 | Cc1cc(Nc2nccc(C(C)C)n2)cc(-c2cnc(C3(O)CCCN(C(=O)CCC(N)=O)CC3)s2)c1 (stereo not shown) [Example 54D-15] |
| < 100 | Cc1cc(Nc2nccc(C(F)(F)F)n2)cc(-c2cnc(C3(O)CCCN(C(=O)CCC#N)CC3)s2)c1 (stereo not shown) [Example 54D-16] |
| < 100 | Cc1cc(Nc2nccc(C(C)C)n2)cc(-c2cnc(C3(O)CCCN(C(=O)Cn4cnnn4)CC3)s2)c1 (stereo not shown) [Example 54D-19] |
| < 100 | Cc1cc(Nc2nccc(C(F)(F)F)n2)cc(-c2cnc(C3(O)CCCN(C(=O)CC(N)=O)CC3)s2)c1 (stereo not shown) [Example 54D-22] |
| < 100 | Cc1cc(Nc2nccc(C(F)(F)F)n2)cc(-c2cnc(C3(O)CCCN(C(=O)CC(C)O)CC3)s2)c1 (stereo not shown) [Example 54D-23] |
| < 100 | Cc1cc(Nc2nccc(C(F)(F)F)n2)cc(-c2cnc(C3(O)CCCN(C(=O)CC(=O)O)CC3)s2)c1 (stereo not shown) [Example 54D-24] |
| < 100 | Cc1cc(Nc2nccc(C(F)(F)F)n2)cc(-c2cnc(C3(O)CCCN(C(=O)C(O)CO)CC3)s2)c1 (stereo not shown) [Example 54D-27] |
| < 100 | CCOC(=O)CC(=O)N1CCCC(O)(c2ncc(-c3cc(C)cc(Nc4nccc(C(C)C)n4)c3)s2)CC1 (stereo not shown) [Example 54D-30] |
| < 100 | Cc1cc(Nc2nccc(C(C)C)n2)cc(-c2cnc(C3(O)CCCN(C(=O)C(C)(CO)CO)CC3)s2)c1 (stereo not shown) [Example 54D-31] |
| < 100 | Cc1cc(Nc2nccc(C(F)(F)F)n2)cc(-c2cnc(C3(O)CCCN(C(=O)c4ncc[nH]4)CC3)s2)c1 (stereo not shown) [Example 54D-34] |
| < 100 | Cc1cc(Nc2nccc(C(F)(F)F)n2)cc(-c2cnc(C3(O)CCCN(C(=O)CCC(=O)O)CC3)s2)c1 (stereo not shown) [Example 54D-43] |
| < 100 | Cc1cc(Nc2nccc(C(F)(F)F)n2)cc(-c2cnc(C3(O)CCCN(C(=O)CC(C)(C)O)CC3)s2)c1 (stereo not shown) [Example 54D-44] |
| < 100 | Cc1cc(Nc2nccc(C(F)(F)F)n2)cc(-c2cnc(C3(O)CCCN(C(=O)CC(F)(F)F)CC3)s2)c1 (stereo not shown) [Example 54D-54] |
